Consider two compounds from BindingDB's records for doi:10.1016/j.bmcl.2004.08.063 (Abbott Laboratories, 2004).

Test [1] concerns the target T1, Tyrosine-protein phosphatase non-receptor type 1 [1-298] (Homo sapiens, UniProt P18031).
T1 construct: 1-298
T1 sequence (P18031 whole entry): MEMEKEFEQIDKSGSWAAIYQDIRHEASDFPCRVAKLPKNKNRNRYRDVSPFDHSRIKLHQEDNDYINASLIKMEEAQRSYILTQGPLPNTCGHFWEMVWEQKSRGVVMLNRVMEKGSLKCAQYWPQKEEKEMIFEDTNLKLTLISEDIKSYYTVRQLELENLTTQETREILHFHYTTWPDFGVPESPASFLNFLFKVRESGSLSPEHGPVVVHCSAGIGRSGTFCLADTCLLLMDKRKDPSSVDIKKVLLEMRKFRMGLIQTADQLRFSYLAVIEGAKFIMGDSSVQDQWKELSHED
The test can be described thus: PTP1B and TCPTP Inhibition Assay. Particulars: pH 7.5; 22 °C. On the procedure:
(§1) For each concentration of test compound or DMSO control, the initial rates were used to fit the rectangular hyperbola of Michaelis-Menten by nonlinear regression analysis. The ratio of the apparent Km/Vmax vs inhibitor concentration was plotted, and the Ki was calculated by linear regression to be the negative X-intercept.

Test [2] deals with T2, Tyrosine-protein phosphatase non-receptor type 2 (Homo sapiens, UniProt P17706).
T2 sequence (P17706 whole entry): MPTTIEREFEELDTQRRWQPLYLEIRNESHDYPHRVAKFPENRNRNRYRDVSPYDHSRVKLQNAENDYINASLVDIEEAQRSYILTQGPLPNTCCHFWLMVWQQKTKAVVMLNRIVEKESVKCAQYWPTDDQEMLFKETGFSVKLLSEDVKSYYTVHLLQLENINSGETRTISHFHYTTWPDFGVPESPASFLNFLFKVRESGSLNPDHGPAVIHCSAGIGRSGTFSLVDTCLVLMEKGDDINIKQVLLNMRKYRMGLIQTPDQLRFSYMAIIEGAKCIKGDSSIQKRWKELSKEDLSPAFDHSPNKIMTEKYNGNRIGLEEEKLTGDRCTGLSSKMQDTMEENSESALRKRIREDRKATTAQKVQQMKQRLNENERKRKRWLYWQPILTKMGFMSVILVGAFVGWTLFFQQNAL
Nature of the test: PTP1B and TCPTP Inhibition Assay. Particulars: pH 7.5; 22 °C. On the procedure: as §1

In turn, `COC(=O)c1c(O)cccc1OCC1CC1c1cccc(-c2cc(C(=O)O)no2)c1` (configuration not stated) [5-(3-{2-[3-hydroxy-2-(methoxycarbonyl)phenoxymethyl]cyclopropyl}phenyl)-1,2-oxazole-3-carboxylic acid] displayed a Ki in test [1] of 23 µM.

Consider `COC(=O)c1c(O)cccc1OC/C=C/c1cccc(-c2onc(C(=O)O)c2N)c1` [4-amino-5-{3-[(1E)-3-[3-hydroxy-2-(methoxycarbonyl)phenoxy]prop-1-en-1-yl]phenyl}-1,2-oxazole-3-carboxylic acid], for which the inhibitory constant (Ki) in test [2] was above 30 µM.
